The source of these data is patent US20240228535A1 (priority 2022, published 2024).

This assay has as its target SARS2 coronavirus 3CL protease (Severe acute respiratory syndrome coronavirus 2, UniProt P0DTD1). Kind of assay: biochemical. Conditions: 5 nM enzyme, 30 min pre-incubation with compound, 15 μM peptide substrate, 4 h at room temperature; read-out: FRET Potency (nM); IC50 values in the SARS2 3CLPro FRET assay.
Consider `CC(C(=O)Nc1ccc(Cl)cc1C(=O)N[C@@H](C[C@@H]1C[C@@H](C)NC1=O)C(=O)C(=O)NC1CC1)c1cscn1` (stereo partly drawn) [Example 89, 5-chloro-N-[(1S)-3-(cyclopropylamino)-1-[[(3S,5R)-5-methyl-2-oxo-pyrrolidin-3-yl]methyl]-2,3-dioxo-propyl]-2-(2-thiazol-4-ylpropanoylamino)benzamide], for which the IC50 is 10.1 nM.
`COC(=O)Nc1ccc(Cl)cc1C(=O)N[C@@H](C[C@@H]1CCNC1=O)C(=O)C(=O)NC1CC1` [Example 123]: the IC50 turned out to be 7.3 nM.
The value for `CNC(=O)C(=O)[C@H](C[C@@H]1C[C@@H](C)NC1=O)NC(=O)c1cc(Cl)ccc1NC(=O)C1CC1` [Example 122] was 8.1 nM.
Turning to `CNC(=O)C(=O)[C@H](C[C@@H]1CCNC1=O)NC(=O)c1cc(F)c(F)cc1NC(=O)OC` [Example 109, methyl N-[4,5-difluoro-2-[[(1S)-3-(methylamino)-2,3-dioxo-1-[[(3S)-2-oxopyrrolidin-3-yl]methyl]propyl]carbamoyl]phenyl]carbamate], the IC50 was found to be 6 nM.
Consider `O=C(NC1CC1)C(=O)[C@H](C[C@@H]1CCNC1=O)NC(=O)c1cc(Cl)ccc1NC(=O)C1CC(F)(F)C1` [Example 63, 5-chloro-N-[(1S)-3-(cyclopropylamino)-2,3-dioxo-1-[[(3S)-2-oxopyrrolidin-3-yl]methyl]propyl]-2-[(3,3-difluorocyclobutanecarbonyl)amino]benzamide], for which the IC50 was determined as 7.3 nM.
The value for `CNC(=O)C(=O)[C@H](C[C@@H]1CCNC1=O)NC(=O)c1cc(Cl)ccc1NC(=O)OC1CCC1` [Example 137, cyclobutyl N-[4-chloro-2-[[(1S)-3-(methylamino)-2,3-dioxo-1-[[(3S)-2-oxopyrrolidin-3-yl]methyl]propyl]carbamoyl]phenyl]carbamate] was 5.4 nM; that for `O=C(NC1CC1)C(=O)[C@H](C[C@@H]1CCNC1=O)NC(=O)c1cc(Cl)ccc1NC(=O)[C@H]1CC1(F)F` [Example 168] was 12 nM.
The value for `O=C(NC1CC1)C(=O)[C@H](C[C@@H]1CCNC1=O)NC(=O)c1cc(Cl)ccc1NC(=O)c1cncc(C(F)(F)F)c1` [Example 71, N-[4-chloro-2-[[(1S)-3-(cyclopropylamino)-2,3-dioxo-1-[[(3S)-2-oxopyrrolidin-3-yl]methyl]propyl]carbamoyl]phenyl]-5-(trifluoromethyl)pyridine-3-carboxamide] was 6.6 nM; that for `C[C@@H]1C[C@@H](C[C@H](NC(=O)c2cc(C#N)ccc2NC(=O)c2cccc(F)c2)C(=O)C(=O)NC2CC2)C(=O)N1` [Example 32, 5-cyano-N-[(1S)-3-(cyclopropylamino)-1-[[(3S,5R)-5-methyl-2-oxo-pyrrolidin-3-yl]methyl]-2,3-dioxo-propyl]-2-[(3-fluorobenzoyl)amino] benzamide] was 12.3 nM; that for `CNC(=O)C(=O)[C@H](C[C@@H]1CCNC1=O)NC(=O)c1cc(Cl)ccc1NC(=O)OC(C)(C)C` [Example 142, tert-butyl N-[4-chloro-2-[[(1S)-3-(methylamino)-2,3-dioxo-1-[[(3S)-2-oxopyrrolidin-3-yl]methyl]propyl]carbamoyl]phenyl]carbamate] was 41.1 nM.
In the case of `C[C@@H]1C[C@@H](C[C@H](NC(=O)c2cc(Cl)ccc2NC(=O)CCC(F)(F)F)C(=O)C(N)=O)C(=O)N1` [Example 158, N-[(1S)-3-amino-1-[[(3S,5R)-5-methyl-2-oxo-pyrrolidin-3-yl]methyl]-2,3-dioxo-propyl]-5-chloro-2-(4,4,4-trifluorobutanoylamino) benzamide] it was 8.3 nM; in that of `CNC(=O)C(=O)[C@H](C[C@@H]1CCNC1=O)NC(=O)c1cc(Cl)ccc1NC(=O)OC` [Example 106], 4.3 nM; in that of `[2H]C([2H])([2H])OC(=O)Nc1ccc(Cl)cc1C(=O)N[C@@H](C[C@@H]1CCNC1=O)C(=O)C(=O)NC` [Example 108, trideuteriomethyl N-[4-chloro-2-[[(1S)-3-(methylamino)-2,3-dioxo-1-[[(3S)-2-oxopyrrolidin-3-yl]methyl]propyl]carbamoyl]phenyl]carbamate], 4.8 nM.
On to `CNC(=O)C(=O)[C@H](C[C@@H]1C[C@@H](C)NC1=O)NC(=O)c1cc(Cl)ccc1NC(=O)[C@@H](N(C)C(=O)OC)C(C)(C)C` [Example 221], for which the IC50 was found to be 41.9 nM.
In the case of `CNC(=O)C(=O)[C@H](C[C@@H]1C[C@@H](C)NC1=O)NC(=O)c1cc(C(F)F)ccc1NC(=O)C1(C(F)(F)F)CC1` [Example 203, 5-(difluoromethyl)-N-[(1S)-3-(methylamino)-1-[[(3S,5R)-5-methyl-2-oxo-pyrrolidin-3-yl]methyl]-2,3-dioxo-propyl]-2-[[1-(trifluoromethyl)cyclopropane-carbonyl]amino]benzamide] it was 36.6 nM.
In the case of `CNC(=O)C(=O)[C@H](C[C@@H]1C[C@@H](C)NC1=O)NC(=O)c1cc(Cl)c(F)cc1NC(=O)c1ccc(C(F)(F)F)nc1` [Example 223, N-[4-chloro-5-fluoro-2-[[(1S)-3-(methylamino)-1-[[(3S,5R)-5-methyl-2-oxo-pyrrolidin-3-yl]methyl]-2,3-dioxo-propyl]carbamoyl]phenyl]-6-(trifluoromethyl)pyridine-3-carboxamide] it was 9 nM; in that of `CNC(=O)C(=O)[C@H](C[C@@H]1C[C@@H](C)NC1=O)NC(=O)c1cc(Cl)ccc1NC(=O)C1CCCC1(F)F` (stereo partly drawn) [Example 185, 5-chloro-2-[(2,2-difluorocyclopentanecarbonyl)amino]-N-[(1S)-3-(methylamino)-1-[[(3S,5R)-5-methyl-2-oxo-pyrrolidin-3-yl]methyl]-2,3-dioxo-propyl]benzamide], 9 nM.
The value for `C[C@@H]1C[C@@H](C[C@H](NC(=O)c2cc(Cl)cc(F)c2NC(=O)CCC(F)(F)F)C(=O)C(=O)NC2CC2)C(=O)N1` [Example 213, 5-chloro-N-[(1S)-3-(cyclopropylamino)-1-[[(3S,5R)-5-methyl-2-oxo-pyrrolidin-3-yl]methyl]-2,3-dioxo-propyl]-3-fluoro-2-(4,4,4-trifluorobutanoylamino) benzamide] was 15.4 nM; that for `C[C@@H]1C[C@@H](C[C@H](NC(=O)c2cc(C(F)F)ccc2NC(=O)c2cccc(C(F)(F)F)c2)C(=O)C(=O)NC2CC2)C(=O)N1` [Example 44, N-[(1S)-3-(cyclopropylamino)-1-[[(3S,5R)-5-methyl-2-oxo-pyrrolidin-3-yl]methyl]-2,3-dioxo-propyl]-5-(difluoromethyl)-2-[[3-(trifluoromethyl)benzoyl]amino]benzamide] was 9.4 nM.
With `C[C@@H]1C[C@@H](C[C@H](NC(=O)c2cc(Cl)c(F)cc2NC(=O)C2(C(F)(F)F)CC2)C(=O)C(=O)NC2CC2)C(=O)N1` [Example 33, 5-chloro-N-[(1S)-3-(cyclopropylamino)-1-[[(3S,5R)-5-methyl-2-oxo-pyrrolidin-3-yl]methyl]-2,3-dioxo-propyl]-4-fluoro-2-[[1-(trifluoromethyl)cyclopropane-carbonyl]amino]benzamide], the IC50 came out at 12.2 nM.
The value for `C[C@@H]1C[C@@H](C[C@H](NC(=O)c2cc(Cl)ccc2NC(=O)c2cccc(C(F)(F)F)n2)C(=O)C(=O)NC2CC2)C(=O)N1` [Example 40] was 10 nM; that for `C[C@@H]1C[C@@H](C[C@H](NC(=O)c2cc(F)ccc2NC(=O)C2(C(F)(F)F)CC2)C(=O)C(=O)NC2CC2)C(=O)N1` [Example 25, N-[(1S)-3-(cyclopropylamino)-1-[[(3S,5R)-5-methyl-2-oxo-pyrrolidin-3-yl]methyl]-2,3-dioxo-propyl]-5-fluoro-2-[[1-(trifluoromethyl)cyclopropane-carbonyl]amino]benzamide] was 18.1 nM; that for `O=C(CC(F)(F)F)Nc1ccc(Cl)cc1C(=O)N[C@@H](C[C@@H]1CCNC1=O)C(=O)C(=O)NC1CC1` [Example 38, 5-chloro-N-[(1S)-3-(cyclopropylamino)-2,3-dioxo-1-[[(3S)-2-oxopyrrolidin-3-yl]methyl]propyl]-2-(3,3,3-trifluoropropanoylamino) benzamide] was 10.5 nM.
In the case of `CCOC(=O)Nc1ccc(Cl)cc1C(=O)N[C@@H](C[C@@H]1CCNC1=O)C(=O)C(=O)NC1CC1` [Example 139] it was 6.3 nM; in that of `CNC(=O)C(=O)[C@H](C[C@@H]1C[C@@H](C)NC1=O)NC(=O)c1cc(Cl)ccc1NC(=O)c1cnc(C(F)(F)F)nc1` [Example 215, N-[4-chloro-2-[[(1S)-3-(methylamino)-1-[[(3S,5R)-5-methyl-2-oxo-pyrrolidin-3-yl]methyl]-2,3-dioxo-propyl]carbamoyl]phenyl]-2-(trifluoromethyl)pyrimidine-5-carboxamide], 10.1 nM; in that of `O=C(Nc1cc(F)c(F)cc1C(=O)N[C@@H](C[C@@H]1CCNC1=O)C(=O)C(=O)NC1CC1)OC1CC1` [Example 150], 17.9 nM.
In the case of `CNC(=O)C(=O)[C@H](C[C@@H]1C[C@@H](C)NC1=O)NC(=O)c1cc(Cl)c(Cl)cc1NC(=O)OC1CC1` [Example 170, cyclopropyl N-[4,5-dichloro-2-[[(1S)-3-(methylamino)-1-[[(3S,5R)-5-methyl-2-oxo-pyrrolidin-3-yl]methyl]-2,3-dioxo-propyl]carbamoyl]phenyl] carbamate], the IC50 came out at 10.5 nM.
The value for `C[C@@H]1C[C@@H](C[C@H](NC(=O)c2cc(Cl)ccc2NC(=O)c2cccc(F)c2)C(=O)C(=O)NC2CC2)C(=O)N1` [Example 73, 5-chloro-N-[(1S)-3-(cyclopropylamino)-1-[[(3S,5R)-5-methyl-2-oxo-pyrrolidin-3-yl]methyl]-2,3-dioxo-propyl]-2-[(3-fluorobenzoyl)amino] benzamide] was 6.2 nM.
In the case of `C[C@@H]1C[C@@H](C[C@H](NC(=O)c2cc(Cl)ccc2NC(=O)CCC(F)(F)F)C(=O)C(=O)NC2CC2)C(=O)N1` [Example 3, 5-chloro-N—((S)-4-(cyclopropylamino)-1-((3S,5R)-5-methyl-2-oxopyrrolidin-3-yl)-3,4-dioxobutan-2-yl)-2-(4,4,4-trifluorobutanamido)benzamide] it was 6.9 nM.
